Test results: the NIST ThermoML archive (doi:10.1016/j.fluid.2013.10.034)
Numbers after ± are expanded uncertainties.

How the values were obtained:
[1] = refractive index (Na D-line) (dimensionless); conditions: 298.15 K; 101.33 kPa; Liquid; Standard Abbe refractometry
[2] = 298.15 K; 101.33 kPa; Liquid; Vibrating tube method

Row | Structure (SMILES) | refractive index [1] | mass density [2] [kg/m3]
1 | O [water] | 1.3325 ± 0.0005 | 
2 | CCCO [propan-1-ol] | 1.3836 ± 0.0005 | 799.62 ± 0.11
3 | CC(C)O [propan-2-ol] | 1.3754 ± 0.0005 | 782.7 ± 0.15
4 | CC(=O)CC(C)C [4-methylpentan-2-one] | 1.3936 ± 0.0005 | 795.94 ± 0.14
